Experiments:
Format in all cases: biochemical
[1] = biological target: T1, γ-humulene synthase (SEQ ID No:24) (Abies grandis, UniProt O64405); assay: Kinetic parameters, metal ion requirement and substrate specificity of recombinant γ-humulene synthase; settings: for Km: read-out: Km value for divalent metal ion
T1 construct: For further subcloning of the amplified, full-length cDNA into the pSBETa vector for high-level expression, the pGAG5 insert was amplified; made in house; host or cells: E. coli XL1-Blue/pGAG5 or E. coli BL21(DE3)/pSBAG5
T1 sequence (O64405 1-593): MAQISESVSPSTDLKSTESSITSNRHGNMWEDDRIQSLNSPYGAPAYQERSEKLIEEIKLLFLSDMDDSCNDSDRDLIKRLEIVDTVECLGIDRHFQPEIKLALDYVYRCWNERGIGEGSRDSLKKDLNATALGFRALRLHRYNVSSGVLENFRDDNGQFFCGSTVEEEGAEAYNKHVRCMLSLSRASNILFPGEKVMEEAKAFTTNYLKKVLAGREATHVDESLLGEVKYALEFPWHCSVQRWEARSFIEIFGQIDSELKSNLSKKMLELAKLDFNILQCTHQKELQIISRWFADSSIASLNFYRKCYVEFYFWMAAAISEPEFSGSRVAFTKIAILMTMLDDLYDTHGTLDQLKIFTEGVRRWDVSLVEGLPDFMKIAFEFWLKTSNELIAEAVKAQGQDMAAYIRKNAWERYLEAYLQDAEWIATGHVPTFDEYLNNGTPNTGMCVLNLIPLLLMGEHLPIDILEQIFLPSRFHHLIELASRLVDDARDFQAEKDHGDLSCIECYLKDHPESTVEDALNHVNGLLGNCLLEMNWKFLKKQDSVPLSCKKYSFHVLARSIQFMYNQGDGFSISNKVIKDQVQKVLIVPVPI
Procedure: (§1) The assay for recombinant sesquiterpene synthase (cyclase) activity was performed in 1 ml of buffer (extraction buffer without MnCl2 or the polymeric adsorbents) containing 3.5 μM [1-^3H]farnesyl diphosphate and the total protein extracted from a 5 ml bacterial culture to produce 10^5-10^6 dpm of product in 2 h at 31° C. The incubation mixture was overlaid with 1 ml pentane to trap volatile products. After incubation, the reaction mixture was extracted with pentane (3×1 ml) and the combined extract was passed through a MgSO4-silica gel column to provide the terpene hydrocarbon fractions as before. The columns were subsequently eluted with 3×1 ml of ether to collect any oxygenated products, and an aliquot of each fraction was taken for liquid scintillation counting to determine conversion rate. The monoterpene synthase and diterpene synthase activity assays were similarly performed as described in detail elsewhere (LaFever, R. E., et al., (1994) Arch. Biochem. Biophys. 313, 139-149; Bohlmann, J., et al., (1997) J. Biol. Chem. 272, 21784-21792; Lewinsohn, E., et al., (1991) Plant Physiol. 96, 38-43).
(§2) The substrate specificity and other kinetic. parameters of γ-humulene synthase (SEQ ID No:24) and δ-selinene synthase (SEQ ID No:20) were investigated in order to confirm the identification and classification of these enzymes. […] Neither of these sesquiterpene synthases requires K^+ or other monovalent cation for activity.
(§3) Substrate specificity of δ-selinene synthase (SEQ ID No:20) and γ-humulene synthase (SEQ ID No:24) was evaluated by comparing farnesyl diphosphate (C15) to geranyl diphosphate (C10) and geranylgeranyl diphosphate (C20) at saturation as precursors of the respective terpene olefins. […] The identities of the monoterpene products produced by the sesquiterpene synthases were determined by GLC-MS and are set forth in FIG. 4.

[2] = biological target: T2, δ-selinene synthase (SEQ ID No:20) (Abies grandis, UniProt O64404); assay: Kinetic parameters, metal ion requirement and substrate specificity of recombinant δ-selinene synthase; settings: for Km: read-out: Km value for divalent metal ion
T2 construct: made in house; host or cells: E. coli XL1-Blue/pGAG4 or E. coli BL21(DE3)/pSBAG4
T2 sequence (O64404 1-581): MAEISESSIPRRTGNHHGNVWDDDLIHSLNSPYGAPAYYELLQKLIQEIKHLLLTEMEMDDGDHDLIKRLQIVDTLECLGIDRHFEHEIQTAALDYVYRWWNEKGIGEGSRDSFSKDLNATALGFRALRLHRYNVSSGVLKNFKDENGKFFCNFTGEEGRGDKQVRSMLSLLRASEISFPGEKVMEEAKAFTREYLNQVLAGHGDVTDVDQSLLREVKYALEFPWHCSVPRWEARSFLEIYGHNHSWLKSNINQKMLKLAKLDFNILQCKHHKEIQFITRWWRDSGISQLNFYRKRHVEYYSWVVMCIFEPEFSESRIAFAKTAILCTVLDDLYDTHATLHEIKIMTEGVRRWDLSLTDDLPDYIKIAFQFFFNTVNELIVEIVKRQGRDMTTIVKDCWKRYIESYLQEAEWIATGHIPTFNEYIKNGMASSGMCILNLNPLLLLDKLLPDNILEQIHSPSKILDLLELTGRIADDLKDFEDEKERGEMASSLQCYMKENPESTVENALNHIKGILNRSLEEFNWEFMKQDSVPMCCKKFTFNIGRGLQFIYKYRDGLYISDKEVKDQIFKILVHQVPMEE
Procedure: as §1, §2, §3

[3] = biological target: T3, δ-Selinene Synthase (ag4) (SEQ ID No. 20) (Abies grandis, UniProt O64404); assay: Product profile of recombinant δ-selinene synthase in vitro (preparative assay, GLC-MS); settings: from [1-3H]farnesyl diphosphate; total ion current chromatogram
T3 construct: made in house; host or cells: E. coli XL1-Blue/pGAG4 or E. coli BL21(DE3)/pSBAG4
T3 sequence (O64404 1-581): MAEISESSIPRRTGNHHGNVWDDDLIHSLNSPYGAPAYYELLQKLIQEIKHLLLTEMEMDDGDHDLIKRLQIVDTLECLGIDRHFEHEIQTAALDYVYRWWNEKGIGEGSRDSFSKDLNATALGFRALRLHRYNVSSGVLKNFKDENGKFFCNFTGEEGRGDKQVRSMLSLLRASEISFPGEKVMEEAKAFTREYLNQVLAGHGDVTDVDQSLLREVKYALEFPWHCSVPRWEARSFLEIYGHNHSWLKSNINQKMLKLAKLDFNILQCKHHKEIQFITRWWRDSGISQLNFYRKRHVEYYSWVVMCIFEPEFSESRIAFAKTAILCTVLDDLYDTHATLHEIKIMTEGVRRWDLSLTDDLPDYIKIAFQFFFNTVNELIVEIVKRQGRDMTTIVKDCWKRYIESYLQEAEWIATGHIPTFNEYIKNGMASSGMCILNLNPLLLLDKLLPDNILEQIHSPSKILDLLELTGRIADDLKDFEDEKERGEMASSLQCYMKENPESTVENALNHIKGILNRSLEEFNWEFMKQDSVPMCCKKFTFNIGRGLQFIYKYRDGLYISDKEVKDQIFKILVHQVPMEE
Procedure: (§4) For preparative incubations, the assay was scaled to 5 ml containing the total protein extracted from 100 ml of bacterial culture and 30 μM [1-^3H]farnesyl diphosphate, and the incubation time was extended to 8 h. Aliquots of the olefin fraction and the fraction containing oxygenated metabolites (diethyl ether eluate) were evaluated by liquid scintillation counting, and were analyzed by radio-GLC (Croteau, R. & Cane. D. E. (1985) Methods Enzymol. 110, 383-405; Satterwhite, D. M. & Croteau, R. (1988) J. Chromatogr. 452, 61-73) using a Gow-Mac 550P chromatograph that was equipped with a 3.18 mm×3.66 m stainless steel column packed with 5% OV17 (50% phenyl:50% methylsiloxane) on 100/120 mesh Gas Chrom Q (Alltech) and programmed from 150° C. to 220° C. at 2° C./min with He as carrier. The elution of co-injected standards was monitored with the Gow-Mac thermal conductivity detector (250° C. and 150 mA) and the radioactivity signal was continuously monitored with a Nuclear Chicago Model 8731 gas proportional counter; output data were processed using Perkin-Elmer Turbochrom Software.
(§5) Expression of Sesquiterpene Synthase cDNAs AG4 (SEQ ID No:19) and AG5. (SEQ ID No:23) in E. coli. Both putative sesquiterpene cyclase cDNAs (SEQ ID Nos:19 and 23) were expressed in bacterial strains E. coli XL1-Blue/pGAG4, E. coli XL1-Blue/pGAG5, E. coli BL21(DE3)/pSBAG4, and E. coli BL21(DE3)/pSBAG5 as set forth in EXAMPLE 7. Bacteria were grown to A600=0.5 at 37° C. in 5 ml or 100 ml of LB medium supplemented with 100 μg ampicillin/ml or 30 μg kanamycin/ml as determined by the vector. Cultures were then induced by addition of 1 mM isopropyl-1-thio-β-D-galactopyranoside and grown for another 12 h at 20° C. Cells were harvested by centrifugation (2000×g, 10 min) and resuspended in either 1 ml or 5 ml sesquiterpene synthase assay buffer (EXAMPLE 2). Cells were disrupted by sonication (Braun-Sonic 2000 with microprobe at maximum power for 15 seconds at 0-4° C.) and the homogenates were cleared by centrifugation (18,000×g, 10 min). Preparative assays were employed to generate product for GLC-MS analysis, as set forth in EXAMPLE 2, with quantification of composition via the total ion current chromatogram.
Product Profile of Recombinant δ-Selinene Synthase (SEQ ID No:20) In Vitro.

[4] = biological target: T4, γ-Humulene Synthase (ag5) (SEQ ID No: 24) (Abies grandis, UniProt O64405); assay: Product profile of recombinant γ-humulene synthase in vitro (preparative assay, GLC-MS); settings: from [1-3H]farnesyl diphosphate; total ion current chromatogram
T4 construct: For further subcloning of the amplified, full-length cDNA into the pSBETa vector for high-level expression, the pGAG5 insert was amplified; made in house; host or cells: E. coli XL1-Blue/pGAG5 or E. coli BL21(DE3)/pSBAG5
T4 sequence (O64405 1-593): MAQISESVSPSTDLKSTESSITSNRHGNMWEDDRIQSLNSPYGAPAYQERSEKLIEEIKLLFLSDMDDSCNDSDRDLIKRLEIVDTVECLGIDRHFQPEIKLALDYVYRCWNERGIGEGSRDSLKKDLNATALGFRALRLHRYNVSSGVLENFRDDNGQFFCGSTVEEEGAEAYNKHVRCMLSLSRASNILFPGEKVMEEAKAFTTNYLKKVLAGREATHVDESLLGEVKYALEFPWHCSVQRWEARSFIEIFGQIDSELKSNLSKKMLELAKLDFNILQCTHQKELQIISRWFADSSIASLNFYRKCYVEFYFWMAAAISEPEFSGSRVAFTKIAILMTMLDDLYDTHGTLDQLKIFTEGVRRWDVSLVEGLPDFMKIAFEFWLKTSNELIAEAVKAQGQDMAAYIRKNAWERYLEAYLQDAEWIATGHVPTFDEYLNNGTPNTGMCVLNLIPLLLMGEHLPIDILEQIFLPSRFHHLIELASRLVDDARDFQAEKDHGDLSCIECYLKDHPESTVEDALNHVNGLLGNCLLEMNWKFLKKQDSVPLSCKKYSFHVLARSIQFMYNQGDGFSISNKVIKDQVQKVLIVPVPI
Procedure: as §4, §5
Product Profile of Recombinant γ-Humulene Synthase (SEQ ID No:24) In Vitro.

[Mn+2] [Mn^2+]
metal ion utilization in the cyclization reaction [1]: comparable velocities | Km [1]: ~25 µM | maximum rate relative to that with Mg2+ at saturation [2]: less than 10% | Km [2]: ~25 µM

C=C1C2CCC(C2)C1(C)C (stereo not drawn) [camphene]
monoterpene product formed from geranyl diphosphate ([1]; GLC-MS): detectable amounts | monoterpene product formed from geranyl diphosphate ([2]; GLC-MS): does not produce

CC1=CC[C@@H]2[C@H]3[C@H](C(C)C)CC[C@]2(C)[C@@H]13 [α-Ylangene]
sesquiterpene products of δ-selinene synthase, % [3]: 0.1% | sesquiterpene products of γ-humulene synthase, % [4]: 2.7%

CC1=C[C@H]2C(=C(C)CC[C@H]2C(C)C)CC1 [δ-Amorphene]
sesquiterpene products of δ-selinene synthase, % [3]: 6.4% | sesquiterpene products of γ-humulene synthase, % [4]: 0.5%

[Mg+2] [Mg^2+]
metal ion utilization in the cyclization reaction [1]: comparable velocities | Km [1]: ~125 µM | Km [2]: ~125 µM

CC(C)=C1C/C=C(\C)CC/C=C(\C)CC1 [Z-E-Germacrene B (tent.), Z,E-Germacrene B]
sesquiterpene products of δ-selinene synthase, % [3]: 1.3% | sesquiterpene products of γ-humulene synthase, % [4]: 0.1%

Source: patent publication US6451576B1, “Sesquiterpene synthases from grand fir (Abies grandis), and methods of use” (Washington State University Research Foundation, priority 1998, dated 2002)
